In patent US12077503B2, “Substituted cyclic amides and their use as herbicides” (FMC CORPORATION, priority 2015, dated 2024):

Assays:
Format in all cases: in vivo
Kochia (Kochia scoparia) [1] = assay: Test A preemergence; settings: Bassia scoparia, pre-emergence, 240 h, Preemergence; for pest or weed control at 31 g/ha: 31 g ai/ha, 0 to 100 scale where 0 is no effect and 100 is complete control, read-out: Kochia plant response rating; for pest or weed control at 125 g/ha: 125 g ai/ha, 0 to 100 scale (0 no effect, 100 complete control), read-out: Plant response rating, Kochia
How it was run: (§1)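 Seeds sprayed preemergence with a directed soil spray, or plants at 2 to 10 cm height and one- to two-leaf stage sprayed postemergence, with test chemicals in a non-phytotoxic solvent mixture containing surfactant, in loam soil–sand blend. Injury rated visually against untreated controls after about 10 d in greenhouse, 0 (no effect) to 100 (complete control).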

[2] = tested on: giant foxtail (Setaria faberii); assay: Test A preemergence; settings: Setaria faberi, pre-emergence, 240 h, Preemergence; for pest or weed control at 31 g/ha: 31 g ai/ha, 0 to 100 scale where 0 is no effect and 100 is complete control, read-out: Foxtail, Giant plant response rating; for pest or weed control at 125 g/ha: 125 g ai/ha, 0 to 100 scale (0 no effect, 100 complete control), read-out: Plant response rating, Foxtail, Giant
How it was run: as §1

[3] = tested on: pigweed (Amaranthus retroflexus); assay: Test A preemergence; settings: Amaranthus retroflexus, pre-emergence, 240 h, Preemergence; for pest or weed control at 31 g/ha: 31 g ai/ha, 0 to 100 scale where 0 is no effect and 100 is complete control, read-out: Pigweed plant response rating; for pest or weed control at 125 g/ha: 125 g ai/ha, 0 to 100 scale (0 no effect, 100 complete control), read-out: Plant response rating, Pigweed
[4] = tested on: barnyardgrass (Echinochloa crus-galli); assay: Test A preemergence; settings: Echinochloa crus-galli, pre-emergence, 240 h, Preemergence; for pest or weed control at 31 g/ha: 31 g ai/ha, 0 to 100 scale where 0 is no effect and 100 is complete control, read-out: Barnyardgrass plant response rating; for pest or weed control at 125 g/ha: 125 g ai/ha, 0 to 100 scale (0 no effect, 100 complete control), read-out: Plant response rating, Barnyardgrass
How it was run: as §1

[5] = tested on: ryegrass, Italian (Italian ryegrass, Lolium multiflorum); assay: Test A preemergence; settings: Lolium multiflorum, pre-emergence, 240 h, Preemergence; for pest or weed control at 31 g/ha: 31 g ai/ha, 0 to 100 scale where 0 is no effect and 100 is complete control, read-out: Ryegrass, Italian plant response rating; for pest or weed control at 125 g/ha: 125 g ai/ha, 0 to 100 scale (0 no effect, 100 complete control), read-out: Plant response rating, Ryegrass, Italian
How it was run: as §1

[6] = tested on: ragweed (common ragweed, Ambrosia elatior); assay: Test A preemergence; settings: Ambrosia artemisiifolia, pre-emergence, 240 h, Preemergence; for pest or weed control at 31 g/ha: 31 g ai/ha, 0 to 100 scale where 0 is no effect and 100 is complete control, read-out: Ragweed plant response rating; for pest or weed control at 125 g/ha: 125 g ai/ha, 0 to 100 scale (0 no effect, 100 complete control), read-out: Plant response rating, Ragweed
How it was run: as §1

[7] = tested on: Galium (catchweed bedstraw, Galium aparine); assay: Test A postemergence; settings: Galium, post-emergence, 240 h, Postemergence, read-out: Galium plant response rating (0 to 100 scale); for pest or weed control at 125 g/ha: 125 g ai/ha, visual rating about 10 d after treatment; for pest or weed control at 31 g/ha: 31 g ai/ha, 0 is no effect, 100 is complete control
How it was run: as §1

[8] = tested on: blackgrass (Alopecurus myosuroides); assay: Test A postemergence; settings: Alopecurus myosuroides, post-emergence, 240 h, Postemergence, read-out: Blackgrass plant response rating (0 to 100 scale); for pest or weed control at 125 g/ha: 125 g ai/ha, visual rating about 10 d after treatment; for pest or weed control at 31 g/ha: 31 g ai/ha, 0 is no effect, 100 is complete control
How it was run: as §1

Kochia (Kochia scoparia) [9] = assay: Test A postemergence; settings: Bassia scoparia, post-emergence, 240 h, Postemergence, read-out: Kochia plant response rating (0 to 100 scale); for pest or weed control at 125 g/ha: 125 g ai/ha, visual rating about 10 d after treatment; for pest or weed control at 31 g/ha: 31 g ai/ha, 0 is no effect, 100 is complete control
How it was run: as §1

[10] = tested on: giant foxtail (Setaria faberii); assay: Test A postemergence; settings: Setaria faberi, post-emergence, 240 h, Postemergence, read-out: Foxtail, Giant plant response rating (0 to 100 scale); for pest or weed control at 125 g/ha: 125 g ai/ha, visual rating about 10 d after treatment; for pest or weed control at 31 g/ha: 31 g ai/ha, 0 is no effect, 100 is complete control
How it was run: as §1

[11] = tested on: pigweed (Amaranthus retroflexus); assay: Test A postemergence; settings: Amaranthus retroflexus, post-emergence, 240 h, Postemergence, read-out: Pigweed plant response rating (0 to 100 scale); for pest or weed control at 125 g/ha: 125 g ai/ha, visual rating about 10 d after treatment; for pest or weed control at 31 g/ha: 31 g ai/ha, 0 is no effect, 100 is complete control
How it was run: as §1

[12] = tested on: barnyardgrass (Echinochloa crus-galli); assay: Test A postemergence; settings: Echinochloa crus-galli, post-emergence, 240 h, Postemergence; for pest or weed control at 125 g/ha: 125 g ai/ha, visual rating about 10 d after treatment, read-out: Barnyardgrass plant response rating (0 to 100 scale, 0 no effect, 100 complete control); for pest or weed control at 31 g/ha: 31 g ai/ha, 0 is no effect, 100 is complete control, read-out: Barnyardgrass plant response rating (0 to 100 scale)
How it was run: as §1

[13] = tested on: wheat (Triticum aestivum); assay: Test A postemergence; settings: Triticum aestivum, post-emergence, 240 h, Postemergence, read-out: Wheat plant response rating (0 to 100 scale); for plant injury at 125 g/ha: 125 g ai/ha, visual rating about 10 d after treatment; for plant injury at 31 g/ha: 31 g ai/ha, 0 is no effect, 100 is complete control
How it was run: as §1

[14] = tested on: ryegrass, Italian (Italian ryegrass, Lolium multiflorum); assay: Test A postemergence; settings: Lolium multiflorum, post-emergence, 240 h, Postemergence, read-out: Ryegrass, Italian plant response rating (0 to 100 scale); for pest or weed control at 125 g/ha: 125 g ai/ha, visual rating about 10 d after treatment; for pest or weed control at 31 g/ha: 31 g ai/ha, 0 is no effect, 100 is complete control
How it was run: as §1

corn (Zea mays) = assay: Test A postemergence; settings: Zea mays, post-emergence, 240 h, Postemergence, read-out: Corn plant response rating (0 to 100 scale); for plant injury at 125 g/ha: 125 g ai/ha, visual rating about 10 d after treatment; for plant injury at 31 g/ha: 31 g ai/ha, 0 is no effect, 100 is complete control
How it was run: as §1

[15] = tested on: ragweed (common ragweed, Ambrosia elatior); assay: Test A postemergence; settings: Ambrosia artemisiifolia, post-emergence, 240 h, Postemergence, read-out: Ragweed plant response rating (0 to 100 scale); for pest or weed control at 125 g/ha: 125 g ai/ha, visual rating about 10 d after treatment; for pest or weed control at 31 g/ha: 31 g ai/ha, 0 is no effect, 100 is complete control
How it was run: as §1

[16] = tested on: ducksalad (Heteranthera limosa); assay: Test B flooded paddy test; settings: Heteranthera limosa, 360 h, Flood, 250 g ai/ha; visually evaluated after 13 to 15 d; read-out: Plant response rating, Ducksalad (0 to 100 scale where 0 is no effect and 100 is complete control)
How it was run: (§2)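 Plants at 2-leaf stage flooded to 3 cm above soil, with compounds applied directly to paddy water and that depth maintained. Plants kept in greenhouse 13–15 d. Visual rating versus controls on a 0 (no effect) to 100 (complete control) scale.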

[17] = tested on: barnyardgrass (Echinochloa crus-galli); assay: Test B flooded paddy test; settings: Echinochloa crus-galli, 360 h, Flood, 250 g ai/ha; visually evaluated after 13 to 15 d; read-out: Plant response rating, Barnyardgrass (0 to 100 scale where 0 is no effect and 100 is complete control)
How it was run: as §2

[18] = tested on: sedge, umbrella (small-flower umbrella sedge, Cyperus difformis); assay: Test B flooded paddy test; settings: Cyperus difformis, 360 h, Flood, 250 g ai/ha; visually evaluated after 13 to 15 d; read-out: Plant response rating, Sedge, Umbrella (0 to 100 scale where 0 is no effect and 100 is complete control)
How it was run: as §2

rice (Oryra sativa) = assay: Test B flooded paddy test; settings: Oryza sativa, 360 h, Flood, 250 g ai/ha; visually evaluated after 13 to 15 d; read-out: Plant response rating, Rice (0 to 100 scale where 0 is no effect and 100 is complete control)
How it was run: as §2

SMILES	pest or weed control at 31 g/ha (Kochia (Kochia scoparia) [1]) [%]	pest or weed control at 125 g/ha (Kochia (Kochia scoparia) [1]) [%]	pest or weed control at 31 g/ha [2] [%]	pest or weed control at 125 g/ha [2] [%]	pest or weed control at 31 g/ha [3] [%]	pest or weed control at 125 g/ha [3] [%]	pest or weed control at 31 g/ha [4] [%]	pest or weed control at 125 g/ha [4] [%]	pest or weed control at 31 g/ha [5] [%]	pest or weed control at 125 g/ha [5] [%]	pest or weed control at 31 g/ha [6] [%]	pest or weed control at 125 g/ha [6] [%]	pest or weed control at 125 g/ha [7] [%]	pest or weed control at 31 g/ha [7] [%]	pest or weed control at 125 g/ha [8] [%]	pest or weed control at 31 g/ha [8] [%]	pest or weed control at 125 g/ha (Kochia (Kochia scoparia) [9]) [%]	pest or weed control at 31 g/ha (Kochia (Kochia scoparia) [9]) [%]	pest or weed control at 125 g/ha [10] [%]	pest or weed control at 31 g/ha [10] [%]	other results
CC(C)=Cc1cc([C@H]2CN(C)C(=O)[C@@H]2C(=O)Nc2cccc(F)c2F)ccc1C(F)(F)F [Compound 1337]	0	0	40	80	0	0	50	80	20	70	0	0	0	0	0	0	20	20	40	20	pest or weed control at 125 g/ha [11]: 20%; pest or weed control at 31 g/ha [11]: 0%; pest or weed control at 125 g/ha [12]: 30%; pest or weed control at 31 g/ha [12]: 20%; plant injury at 125 g/ha [13]: 20%; plant injury at 31 g/ha [13]: 0%; pest or weed control at 125 g/ha [14]: 20%; pest or weed control at 31 g/ha [14]: 0%; plant injury at 125 g/ha (corn (Zea mays)): 0%; plant injury at 31 g/ha (corn (Zea mays)): 0%; pest or weed control at 125 g/ha [15]: 0%; pest or weed control at 31 g/ha [15]: 0%; pest or weed control at 250 g/ha [16]: 20%; pest or weed control at 250 g/ha [17]: 20%; pest or weed control at 250 g/ha [18]: 0%; pest or weed control at 250 g/ha (rice (Oryra sativa)): 20%
COc1c([C@H]2CN(C)C(=O)[C@@H]2C(=O)Nc2ccccc2F)cccc1C(F)(F)F [Compound 1338]	0	0	80	90	0	0	90	100	0	0	0	0	30	0	0	0	0	0	80	50	pest or weed control at 125 g/ha [11]: 0%; pest or weed control at 31 g/ha [11]: 0%; pest or weed control at 125 g/ha [12]: 80%; pest or weed control at 31 g/ha [12]: 70%; plant injury at 125 g/ha [13]: 0%; plant injury at 31 g/ha [13]: 0%; pest or weed control at 125 g/ha [14]: 0%; pest or weed control at 31 g/ha [14]: 0%; plant injury at 125 g/ha (corn (Zea mays)): 0%; plant injury at 31 g/ha (corn (Zea mays)): 0%; pest or weed control at 125 g/ha [15]: 0%; pest or weed control at 31 g/ha [15]: 0%; pest or weed control at 250 g/ha [16]: 100%; pest or weed control at 250 g/ha [17]: 90%; pest or weed control at 250 g/ha [18]: 0%; pest or weed control at 250 g/ha (rice (Oryra sativa)): 25%
